Measurements as given in PMC12299847, “Macroalgae-Inspired Brominated Chalcones as Cosmetic Ingredients with the Potential to Target Skin Inflammaging” (Marine Drugs, 2025).

Columns and labels:
[1] = system: NO production in LPS-stimulated RAW 264.7 macrophages; assay: NO production (Griess assay) in LPS-stimulated macrophages; assay type: cell-based, murine; details: Mus musculus, RAW264.7, 24 h, RAW 264.7, LPS 100 ng/mL, Griess
Procedure: The anti-inflammatory potential of chalcones 1–7 was evaluated in macrophages cultured in the presence or absence (control) of LPS, as depicted in Figure 4. Under basal conditions (unstimulated, control), macrophages produce low levels of nitrites (≈12%). […] Each chalcone was tested at concentrations previously established as non-cytotoxic in macrophages, trying to ensure that observed changes in NO levels were not due to reduced cell viability.
The production of NO was evaluated by measuring nitrite accumulation in culture supernatants using the previously described Griess assay. Cells were seeded at a concentration of 5.0 × 10^4 cells/mL in a 96-well plate (200 μL/well) and allowed to stabilize overnight at 37 °C. Afterwards, the cells were treated with different concentrations of compound solutions and pre-incubated for 1 h at 37 °C. Subsequently, an LPS in PBS solution was added to each well, achieving a final concentration of 100 ng/mL, and the plate was left to incubate for 24 h. An amount of 150 μL of the cell culture supernatant was then transferred to a fresh 96-well plate, and an equal amount of Griess reagent [comprising a 1:1 mixture of 1% (w/v) sulphanilamide in 5% (v/v) phosphoric acid and 0.1% (w/v) naphthylethylenediaminedihydrochloride] was added. Following a 30 min incubation at room temperature in the dark, the absorbance was recorded at 550 nm using a Biotek Synergy HT plate reader (Biotek, CA, USA). The nitrite concentration in the supernatants was determined by comparing the absorbance of each sample to a sodium nitrite standard curve. The results, obtained from at least three independent experiments performed in duplicate, were expressed as a percentage of NO production by cells versus chemical concentration, relative to LPS condition (100%).
Figure 4 NO production by macrophages treated with LPS (100 ng/mL) or not (control) in the presence of chalcones 1–7. Results are expressed as a percentage of NO production by cells treated with LPS (100 ng/mL). Each value represents the mean ± SEM of four independent experiments in duplicate. Statistical analysis: one ANOVA with Dunnett’s multiple comparisons test, where p< 0.05 was considered significant. *** p < 0.005, relative to the control, and ^# p < 0.05, ^## p < 0.01, ^### p < 0.0005, and ^#### p < 0.0001, relative to LPS condition.

[2] = NO scavenging potential (SNAP assay); assay type: biochemical; details: SNAP 300 μM, 3 h; compounds 100 μM (methods) or 7.5 μM (Figure 5)
Procedure: The SNAP (S-nitroso-N-acetylpenicillamine) assay is a well-established method for assessing the NO scavenging capacity of compounds, offering valuable insights into their potential direct antioxidant and anti-inflammatory properties. In this study, chalcones 1–7 were tested for their ability to capture NO radicals induced by the presence of SNAP at a concentration of 300 μM (Figure 5). […] Instead, these compounds could potentially exert their effects via alternative mechanisms, such as the modulation of iNOS activity or by targeting upstream targets in the inflammatory cascade, such as by the suppression of NF-κB activation, and/or Nrf2 activation, which will deplete co-activators from the iNOS enzyme, thereby reducing iNOS transcription and, consequently, iNOS protein levels and NO production.
The ability to scavenge NO was assessed using S-nitroso-N-acetyl-D/L-penicillamine (SNAP) as a source of NO. The production of NO was quantified using the Griess reaction, following a previously described method. […] Absorbance at 550 nm was then measured using a Biotek Synergy HT plate reader (Biotek, CA, USA). The nitrite concentration in the supernatants was determined by comparing the absorbance of each sample to a sodium nitrite standard curve. […]

[3] = system: HaCaT cells transfected with an Nrf2 luciferase reporter construct; assay: Cell viability (resazurin) in KeratinoSens cells; assay type: cell-based, human
Procedure: Selected compounds (chalcones 1 and 2), and the positive control, DMF, were dissolved in sterile DMSO. Intermediate dilutions were prepared in culture medium, including the final concentration to be added to the 96-well plate, with a final volume of 200 µL per well. The KeratinoSens™ assay was conducted as previously described. In brief, cells were seeded at a density of 10,000 cells per well in 96-well white opaque plates (Greiner Bio-One GmbH, cat. no. 655083, Kremsmünster, Austria) and incubated for 24 h. The medium was then replaced with fresh medium containing 1% FBS and the test compounds, and cells were incubated for an additional 24 and 48 h. DMF was used as the positive control since it is a known Nrf2 activator. Cell viability was assessed in the same cells using resazurin. After 20 or 44 h of exposure to the test compounds, 50 µM of resazurin solution (in sterile PBS) was added to each well, and the plates were incubated for 4 h at 37 °C, 5% CO2 Following the resazurin incubation, the supernatant was transferred to a transparent 96-well plate, and absorbance was measured at 570 and 620 nm using a Synergy HT multi-mode microplate reader (BioTek, Bad Friedrichshall, Germany). […] Luminescence was then measured using a FLUOstar OMEGA Microplate Reader (BMG Labtech GmbH, Ortenberg, Germany). […]

In the case of COc1cc(Br)c(/C=C/C(=O)c2cc(OC)c(OC)cc2Br)cc1OC [Chalcone 1], the IC50 [1] is reported as 580 ± 120 nM, the NO scavenging activity [2] is reported as “No direct NO scavenging action” and the “effect on cell viability” value ([3]; 24 h, 5 µM and 7.5 µM) is reported as “without affecting cell viability”. For the same compound, the “effect on cell viability” value ([3]; 48 h) was “decrease in cell viability”.
